Broadly, the Kd is the concentration at which binding is half-saturated. Read a low Kd as a tighter complex. The term inhibition denotes the change of the read-out against control, counted positive when it falls.

This note sets out measurements from ChEMBL document CHEMBL5390211, “Discovery of N-Arylsulfonyl-Indole-2-Carboxamide Derivatives as Galectin-3 and Galectin-8 C-Terminal Domain Inhibitors” (ACS Med Chem Lett, 2023).

In assay [1] the target is T1, Galectin-8 (Homo sapiens, UniProt O00214).
T1 sequence (O00214 whole entry): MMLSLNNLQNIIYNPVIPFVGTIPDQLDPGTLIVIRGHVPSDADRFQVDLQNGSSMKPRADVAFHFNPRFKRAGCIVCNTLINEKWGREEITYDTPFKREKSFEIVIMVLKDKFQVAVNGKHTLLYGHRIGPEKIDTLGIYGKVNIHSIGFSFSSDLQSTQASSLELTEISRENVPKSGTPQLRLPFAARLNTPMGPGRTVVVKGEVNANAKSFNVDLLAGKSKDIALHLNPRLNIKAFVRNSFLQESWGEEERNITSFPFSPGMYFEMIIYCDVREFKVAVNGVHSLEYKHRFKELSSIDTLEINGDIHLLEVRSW
Description: Binding affinity to C-terminal domain human Gal-8 expressed in Escherichia coli BL21 (DE3) cells by isothermal titration calorimetry analysis. (In ITC the heat of successive injections is recorded.)

Assay [2] concerns the target T1, Galectin-8. Put plainly: Binding affinity to N-terminal domain human Gal-8 expressed in Escherichia coli BL21 (DE3) cells by isothermal titration calorimetry analysis.
In assay [3] the target is T1, Galectin-8. Put plainly: Binding affinity to C-terminal domain human Gal-8 expressed in Escherichia coli BL21 (DE3) cells by competitive fluorescence polarization assay.
In assay [4] the target is T1, Galectin-8. Description: Binding affinity to N-terminal domain human Gal-8 expressed in Escherichia coli BL21 (DE3) cells by competitive fluorescence polarization assay. Background: Polarisation of emitted light reports the rotation of a fluorescent probe.
Another assay relates to MRC5. Put plainly: Inhibition of cell migration in human MRC5 cells assessed as reduction in would closure at 1 uM incubated for 48 hrs by Giemsa staining based microscopic analysis relative to control. In kind it is toxicity.
For assay [5], the target named is T1, Galectin-8. Description: Binding affinity to N-terminal domain human Gal-8 expressed in Escherichia coli BL21star (DE3) cells by competitive fluorescence polarization assay.

As to LACTOSE, ANHYDROUS, the figures for the Kd at Galectin-8 [1] and on Galectin-8 [2] were 93 µM and 893 µM, respectively.
Consider `OC[C@H]1O[C@@H](S[C@@H]2O[C@H](CO)[C@H](O)[C@H](n3cc(-c4cccc(F)c4)nn3)[C@H]2O)[C@H](O)[C@@H](n2cc(-c3cccc(F)c3)nn2)[C@H]1O` [OLITIGALTIN], for which the figures for the Kd on Galectin-8 [3], at Galectin-8 [4] and at Galectin-8 [5] were 21.6 µM, 281 µM and 86 µM, respectively. Moreover, the inhibition at 1 µM in the assay on MRC5 stood at 49%.
